Laboratory results taken from US9920040B2, “GPR40 agonists for the treatment of type II diabetes” (Janssen Pharmaceutica NV, priority 2015, dated 2018).
pEC50: −log10 of the molar value. Values joined by “and” are separate entries in the source; they are usually repeats but may differ in a detail not shown here. Identical values can stand only once.

Key:
human GPR40 = target: T1, human GPR40 (Homo sapiens, UniProt O14842); assay: GPR40 calcium flux assay, human GPR40; assay type: cell-based; conditions: transfected HEK293 cells stably expressing human GPR40; multiple values = repeated testing; read-out: hGPR40 Ca^2+ Assay EC50
T1 construct: expressed in transfected cells
Experimental: (§1) Compounds were tested in a calcium flux assay using transfected HEK293 cells stably expressing either human GPR40 or rat GPR40. Human GPR40 expressing cells were cultured in DMEM-High Glucose media supplemented with 10% fetal bovine serum, 1×L-Glutamine, 1×Penicillin/Streptomycin and 500 μg/mL G418. Rat GPR40 expressing cells were cultured in DMEM-High Glucose media supplemented with 10% fetal bovine serum and 1 μg/mL puromycin. Cells were plated into poly-D-lysine coated 384-well plates and cultured overnight in a 37° C. humidified tissue culture incubator under 5% CO2/[…] atmosphere. On the day of the experiment, the culture media was replaced with assay buffer (HBSS, 20 mM HEPES, 0.1% BSA) and the cells incubated at 37° C. for 1 h. Calcium-sensitive fluorescent dye (Fluo 8 No-Wash Calcium Dye, ABD Bioquest) was then added and the cells incubated for another 30 min at 37° C. followed by 15 min at room temperature while protected from the light. The cell plate and a plate of diluted compounds of Formula (I) were loaded into a fluorescent plate reader that added compounds onto the cells while measuring the fluorescence intensity of each well. The plate reader recorded fluorescence intensity at 1 second intervals for 8 min and provided the data for analysis in an Excel format. EC50 values were calculated using Prism (GraphPad) software.

rat GPR40 = target: T2, rat GPR40 (Rattus norvegicus, UniProt Q8K3T4); assay: GPR40 calcium flux assay, rat GPR40; assay type: cell-based; conditions: transfected HEK293 cells stably expressing rat GPR40; multiple values = repeated testing; read-out: rGPR40 Ca^2+ Assay EC50
T2 construct: expressed in transfected cells
Experimental: as §1

T2 sequence (Q8K3T4 whole entry): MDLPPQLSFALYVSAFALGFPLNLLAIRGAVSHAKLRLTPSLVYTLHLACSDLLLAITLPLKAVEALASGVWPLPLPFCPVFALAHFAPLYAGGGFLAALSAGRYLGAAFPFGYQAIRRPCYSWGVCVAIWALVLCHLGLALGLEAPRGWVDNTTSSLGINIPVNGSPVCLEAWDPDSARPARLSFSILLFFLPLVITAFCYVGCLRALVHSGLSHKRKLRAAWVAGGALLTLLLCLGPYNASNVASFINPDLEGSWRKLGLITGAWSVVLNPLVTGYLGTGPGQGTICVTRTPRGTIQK
T1 sequence (O14842 whole entry): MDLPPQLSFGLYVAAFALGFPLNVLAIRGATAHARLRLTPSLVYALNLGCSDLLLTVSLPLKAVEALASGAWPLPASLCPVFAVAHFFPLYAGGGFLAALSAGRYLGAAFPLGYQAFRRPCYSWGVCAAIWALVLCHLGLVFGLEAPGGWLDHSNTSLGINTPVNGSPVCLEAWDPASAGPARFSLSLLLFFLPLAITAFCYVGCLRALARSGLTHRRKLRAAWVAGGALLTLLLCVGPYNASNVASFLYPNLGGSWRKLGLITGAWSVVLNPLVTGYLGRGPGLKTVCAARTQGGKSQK

| SMILES | pEC50 (human GPR40) | pEC50 (rat GPR40) |
| --- | --- | --- |
| COc1ccc(F)c(-c2onc(CCc3cccc(C(CC(=O)O)C4CC4)c3)c2C2CC2)c1 (stereo not drawn) [Cpd 7, 3-cyclopropyl-3-[3-[2-[4-cyclopropyl-5-(2-fluoro-5-methoxy-phenyl)isoxazol-3-yl]ethyl]phenyl]propanoic acid] | 7.62 | 7.16 |
| COc1cc(-c2onc(COc3cccc([C@@H](CC(=O)O)C4CC4)c3)c2OC2CC(C)(C)C(C)(C)C2)c(F)cn1 [Cpd 4, (3S)-3-cyclopropyl-3-[3-[[5-(5-fluoro-2-methoxy-4-pyridyl)-4-(3,3,4,4-tetramethylcyclopentoxy)isoxazol-3-yl]methoxy]phenyl]propanoic acid] | 8.30 | 8.00 |
| COc1ccc(F)c(-c2onc(COc3cc(C(CC(=O)O)C4CC4)c(Cl)cn3)c2C2=CCCC2(C)C)c1 (stereo not drawn) [Cpd 9, 3-[5-chloro-2-[[4-(5,5-dimethylcyclopenten-1-yl)-5-(2-fluoro-5-methoxy-phenyl)isoxazol-3-yl]methoxy]-4-pyridyl]-3-cyclopropyl-propanoic acid] | 7.28 | 6.86 |
| COc1cc(-c2onc(COc3cccc([C@@H](CC(=O)O)C4CC4)c3)c2OCC2CC(C)(C)C2)c(F)cn1 [Cpd 8, (3S)-3-cyclopropyl-3-[3-[[4-[(3,3-dimethylcyclobutyl)methoxy]-5-(5-fluoro-2-methoxy-4-pyridyl)isoxazol-3-yl]methoxy]phenyl]propanoic acid] | 6.95 and 6.99 and 7.57 | 7.36 and 6.84 |
| COc1ccc(F)c(-c2onc(COc3cccc([C@@H](CC(=O)O)C4CC4)c3)c2OCC2CC(C)(C)C2)c1 [Cpd 5, (3S)-3-cyclopropyl-3-[3-[[4-[(3,3-dimethylcyclobutyl)methoxy]-5-(2-fluoro-5-methoxy-phenyl)isoxazol-3-yl]methoxy]phenyl]propanoic acid] | 7.43 and 7.46 and 8.22 | 7.16 and 7.34 and 7.25 |
| COc1cc(-c2scc(COc3cccc([C@@H](CC(=O)O)C4CC4)c3)c2C2=CCCC2(C)C)c2ccsc2c1 [Cpd 10, (3S)-3-cyclopropyl-3-[3-[[4-(5,5-dimethylcyclopenten-1-yl)-5-(6-methoxybenzothiophen-4-yl)-3-thienyl]methoxy]phenyl]propanoic acid] | 7.28 and 7.46 and 7.47 | 7.04 and 7.05 |
| COc1ccc(F)c(-c2onc(COc3cccc([C@@H](CC(=O)O)C4CC4)c3)c2OC2CC(C)(C)C(C)(C)C2)c1 [Cpd 1, (3S)-3-cyclopropyl-3-[3-[[5-(2-fluoro-5-methoxy-phenyl)-4-(3,3,4,4-tetramethylcyclopentoxy)isoxazol-3-yl]methoxy]phenyl]propanoic acid] | 8.52 | 8.22 |
| COc1ccc(F)c(-c2sc(Cl)c(COc3cccc([C@@H](CC(=O)O)C4CC4)c3)c2C(C)C(F)(F)F)c1 (stereo partly drawn) [Cpd 29, (3S)-3-[3-[[2-chloro-5-(2-fluoro-5-methoxy-phenyl)-4-(2,2,2-trifluoro-1-methyl-ethyl)-3-thienyl]methoxy]phenyl]-3-cyclopropyl-propanoic acid] | 6.49 and 6.68 |  |
| COc1ccc(F)c(-c2onc(COc3cccc([C@@H](CC(=O)O)C4CC4)c3)c2OC2CCCCC2)c1 [Cpd 46, (3S)-3-[3-[[4-(cyclohexoxy)-5-(2-fluoro-5-methoxy-phenyl)isoxazol-3-yl]methoxy]phenyl]-3-cyclopropyl-propanoic acid] | 8.15 and 8.30 |  |
| COc1ccc(F)c(-c2scc(COc3cccc([C@@H](CC(=O)O)C4CC4)c3)c2C2=CCCC2(C)C)c1 [Cpd 13, (3S)-3-cyclopropyl-3-[3-[[4-(5,5-dimethylcyclopenten-1-yl)-5-(2-fluoro-5-methoxy-phenyl)-3-thienyl]methoxy]phenyl]propanoic acid] | 7.28 and 7.29 and 7.66 and 7.89 and 7.06 and 7.15 |  |
| CCOc1c(COc2cccc([C@@H](CC(=O)O)C3CC3)c2)noc1-c1cc(OC)ccc1F [Cpd 50, (3S)-3-cyclopropyl-3-[3-[[4-ethoxy-5-(2-fluoro-5-methoxy-phenyl)isoxazol-3-yl]methoxy]phenyl]propanoic acid] | 6.96 and 7.09 |  |
| COc1cc(-c2onc(COc3cccc([C@@H](CC(=O)O)C4CC4)c3)c2C=C(C)C)c(F)cn1 [Cpd 52, (3S)-3-cyclopropyl-3-[3-[[5-(5-fluoro-2-methoxy-4-pyridyl)-4-(2-methylprop-1-enyl)isoxazol-3-yl]methoxy]phenyl]propanoic acid] | 7.29 and 7.35 |  |
| COc1cc(-c2onc(COc3cccc([C@@H](CC(=O)O)C4CC4)c3)c2CC(C)C)c(F)cn1 [Cpd 12, (3S)-3-cyclopropyl-3-[3-[[5-(5-fluoro-2-methoxy-4-pyridyl)-4-isobutyl-isoxazol-3-yl]methoxy]phenyl]propanoic acid] | 5.90 |  |
| COc1ccc(F)c(-c2onc(COc3cccc([C@@H](CC(=O)O)C4CC4)c3)c2-c2ccc(C(C)(C)C)s2)c1 [Cpd 45, (3S)-3-[3-[[4-(5-tert-butyl-2-thienyl)-5-(2-fluoro-5-methoxy-phenyl)isoxazol-3-yl]methoxy]phenyl]-3-cyclopropyl-propanoic acid] | 7.64 and 7.68 |  |
| COc1ccc(F)c(-c2scc(COc3cccc([C@@H](CC(=O)O)C4CC4)c3)c2C(C)C(F)(F)F)c1 (stereo partly drawn) [Cpd 19, (3S)-3-cyclopropyl-3-[3-[[5-(2-fluoro-5-methoxy-phenyl)-4-(2,2,2-trifluoro-1-methyl-ethyl)-3-thienyl]methoxy]phenyl]propanoic acid] | 6.60 and 6.89 |  |
| COc1cc(-c2onc(COc3cccc([C@@H](CC(=O)O)C4CC4)c3)c2OC2CC(C)(C)CC(C)(C)C2)c(F)cn1 [Cpd 2, (3S)-3-cyclopropyl-3-[3-[[5-(5-fluoro-2-methoxy-4-pyridyl)-4-(3,3,5,5-tetramethylcyclohexoxy)isoxazol-3-yl]methoxy]phenyl]propanoic acid] | 8.30 | 8.05 |
| COc1ccc(F)c(-c2onc(COc3cccc([C@@H](CC(=O)O)C4CC4)c3)c2C=C(C)C)c1 [Cpd 36, (3S)-3-cyclopropyl-3-[3-[[5-(2-fluoro-5-methoxy-phenyl)-4-(2-methylprop-1-enyl)isoxazol-3-yl]methoxy]phenyl]propanoic acid] | 7.52 and 7.59 |  |
| COc1ccc(F)c(-c2onc(COc3cccc([C@@H](CC(=O)O)C4CC4)c3)c2-c2ccccc2)c1 [Cpd 34, (3S)-3-cyclopropyl-3-[3-[[5-(2-fluoro-5-methoxy-phenyl)-4-phenyl-isoxazol-3-yl]methoxy]phenyl]propanoic acid] | 6.77 and 6.85 |  |
| COc1ccc(F)c(-c2snc(COc3cccc([C@@H](CC(=O)O)C4CC4)c3)c2C2=CCCC2(C)C)c1 [Cpd 30, (3S)-3-cyclopropyl-3-[3-[[4-(5,5-dimethylcyclopenten-1-yl)-5-(2-fluoro-5-methoxy-phenyl)isothiazol-3-yl]methoxy]phenyl]propanoic acid] | 7.49 and 7.57 |  |
